Data set [1] deals with H358 lung cancer cell line. The experiment in a line: Antiproliferative activity, % of cell viability. The data set is classed as cell-based. Conditions: Homo sapiens, NCI-H358, read-out: 1050.
The conditions of data set [2]: PAMPA, 5 h, 200 µM.

Regarding `COc1cccc2c1C(=O)c1c(O)c3c(c(O)c1C2=O)C[C@@](O)(C(=O)CO)C[C@@H]3O[C@H]1C[C@H](N)[C@H](O)[C@H](C)O1` [doxorubicin], in data set [1], the IC50 was 0.3 nM. For `CC(C)NCC(O)COc1cccc2ccccc12` (centres unmarked) [propranolol], in data set [2], the “Ca (t)” value worked out at 2.01 µM, the “Cd(t)” value worked out at 6.6 µM and the Ceq was found to be 3.85 µM. `CC(=O)Nc1cccc(-n2c(=O)n(C3CC3)c(=O)c3c(Nc4ccc(I)cc4F)n(C)c(=O)c(C)c32)c1` [trametinib]: the IC50 in data set [1] is 7 nM.

The values above are taken from patent publication US20230330034A1, “COVALENTLY CROSS-LINKED GLYCOSYLATED MUCIN NANOPARTICLES AS SYSTEMS FOR THE DELIVERY AND RELEASE OF ACTIVE INGREDIENTS AND BIOMOLECULES” (priority 2020, published 2023).
